compound: Cc1cc([C@@H](C)Nc2ccccc2C(=O)O)c2nc(N3CCOCC3)cc(=O)n2c1 [AZD6482] + O=C(c1cc(Cc2n[nH]c(=O)c3ccccc23)ccc1F)N1CCN(C(=O)C2CC2)CC1 [Olaparib] (partner 8 µM); assay: relative viability (nuclei count vs DMSO), 5 days (fraction); higher = more cells survive; conditions: first compound 0.08 µM
How it was run: (§1)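 Lung cancer cell lines, seeded in 1536-well plates, were treated the following day by pin tool with a single drug or with five library-drug doses (not always all listed) in √10 steps on top of a fixed anchor-drug dose. Cells were fixed and nuclei stained in one step after 5 days, and nuclei were counted. Relative viability is the nuclei count for treated wells divided by that for vehicle wells, reported as medians of duplicate plates.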

Cell Line	relative viability
NCI-H2342	0.346
NCI-H727	0.681
NCI-H1650	0.652
EBC-1	0.533
NCI-H1703	0.342
NCI-H1993	0.881
SW 1573	0.478
NCI-H838	0.631
LCLC-103H	0.677
NCI-H520	0.295
NCI-H2126	0.877
EMC-BAC-2	0.455
NCI-H2085	0.632
Calu-6	0.516
HCC-366	0.328
NCI-H1666	0.731

Cell Line	relative viability
NCI-H596	0.596
LK-2	0.916
NCI-H2087	0.578
NCI-H1648	0.575
SK-MES-1	0.457
H3255	0.559
COR-L23	0.272
COR-L 105	0.607
IA-LM	0.982
LOU-NH91	0.851
ChaGo-K-1	0.399
NCI-H2170	0.536
NCI-H2405	0.599
HOP-62	0.444
A549	0.26
NCI-H1299	0.995

same assay, conditions: first compound 0.253 µM

Cell Line	relative viability
NCI-H2342	0.368
NCI-H727	0.666
NCI-H1650	0.761
EBC-1	0.675
NCI-H1703	0.456
NCI-H1993	0.997
SW 1573	0.4
NCI-H838	0.712
LCLC-103H	0.745
NCI-H520	0.266
NCI-H2126	0.904
EMC-BAC-2	0.479
NCI-H2085	0.358
Calu-6	0.493
HCC-366	0.342
NCI-H1666	0.722

Cell Line	relative viability
NCI-H596	0.68
LK-2	0.731
NCI-H2087	0.587
NCI-H1648	0.823
SK-MES-1	0.598
H3255	0.567
COR-L23	0.414
COR-L 105	0.851
IA-LM	0.995
LOU-NH91	0.917
ChaGo-K-1	0.436
NCI-H2170	0.608
NCI-H2405	0.861
HOP-62	0.539
A549	0.33
NCI-H1299	1.02

same assay, conditions: first compound 0.8 µM

Cell Line	relative viability
NCI-H2342	0.4
NCI-H727	0.66
NCI-H1650	0.643
EBC-1	0.637
NCI-H1703	0.258
NCI-H1993	0.95
SW 1573	0.486
NCI-H838	0.651
LCLC-103H	0.648
NCI-H520	0.262
NCI-H2126	0.867
EMC-BAC-2	0.523
NCI-H2085	0.45
Calu-6	0.533
HCC-366	0.433
NCI-H1666	0.777

Cell Line	relative viability
NCI-H596	1.01
LK-2	0.581
NCI-H2087	0.523
NCI-H1648	0.715
SK-MES-1	0.529
H3255	0.596
COR-L23	0.364
COR-L 105	0.726
IA-LM	1.15
LOU-NH91	0.898
ChaGo-K-1	0.42
NCI-H2170	0.511
NCI-H2405	0.929
HOP-62	0.453
A549	0.37
NCI-H1299	1.07

same assay, conditions: first compound 2.53 µM

Cell Line	relative viability
NCI-H2342	0.42
NCI-H1650	0.736
EBC-1	0.467
NCI-H1703	0.133
NCI-H1993	0.563
SW 1573	0.401
NCI-H838	0.433
LCLC-103H	0.543
NCI-H520	0.162
NCI-H2126	0.615
EMC-BAC-2	0.471
NCI-H2085	0.36
Calu-6	0.527
HCC-366	0.259
NCI-H1666	0.712
NCI-H596	0.737
LK-2	0.73
NCI-H2087	0.345
SK-MES-1	0.305
H3255	0.492
COR-L23	0.195
COR-L 105	0.549
LOU-NH91	0.595
ChaGo-K-1	0.431
NCI-H2170	0.542
NCI-H2405	0.541
HOP-62	0.459
NCI-H1299	0.992

same assay, conditions: first compound 8 µM

Cell Line	relative viability
NCI-H2342	0.329
NCI-H727	0.669
NCI-H1650	0.813
EBC-1	0.301
NCI-H1703	0.167
NCI-H1993	0.665
SW 1573	0.369
NCI-H838	0.395
LCLC-103H	0.569
NCI-H520	0.185
NCI-H2126	0.57
EMC-BAC-2	0.44
NCI-H2085	0.303
Calu-6	0.543
HCC-366	0.282
NCI-H1666	0.773

Cell Line	relative viability
NCI-H596	0.598
LK-2	0.432
NCI-H2087	0.519
NCI-H1648	0.638
SK-MES-1	0.336
H3255	0.55
COR-L23	0.34
COR-L 105	0.687
IA-LM	0.759
LOU-NH91	0.755
ChaGo-K-1	0.4
NCI-H2170	0.489
NCI-H2405	0.677
HOP-62	0.552
A549	0.315
NCI-H1299	0.934

compound: Cc1cc([C@@H](C)Nc2ccccc2C(=O)O)c2nc(N3CCOCC3)cc(=O)n2c1 [AZD6482] + CC(=O)c1c(C)c2cnc(Nc3ccc(N4CCNCC4)cn3)nc2n(C2CCCC2)c1=O [Palbociclib] (partner 0.5 µM); assay: as above; conditions: first compound 0.08 µM
How it was run: as §1

Cell Line	relative viability
NCI-H2342	0.536
NCI-H727	0.63
NCI-H1650	0.312
NCI-H1993	0.503
SW 1573	0.296
NCI-H838	0.167
LCLC-103H	0.48
NCI-H520	0.123
NCI-H2126	0.356
EMC-BAC-2	0.494
NCI-H2085	0.408
HCC-366	0.334
NCI-H1666	0.637
LK-2	0.732
NCI-H2087	0.235
NCI-H1648	0.313
SK-MES-1	0.282
H3255	0.324
COR-L23	0.223
COR-L 105	0.419
LOU-NH91	0.537
ChaGo-K-1	0.948
NCI-H2170	0.36
NCI-H2405	0.378
HOP-62	0.504

same assay, conditions: first compound 0.253 µM

Cell Line	relative viability
NCI-H2342	0.499
NCI-H727	0.63
NCI-H1650	0.271
NCI-H1993	0.579
SW 1573	0.351
NCI-H838	0.203
LCLC-103H	0.475
NCI-H520	0.157
NCI-H2126	0.383
EMC-BAC-2	0.491
NCI-H2085	0.379
HCC-366	0.367
NCI-H1666	0.576
LK-2	0.698
NCI-H2087	0.223
NCI-H1648	0.275
SK-MES-1	0.293
H3255	0.33
COR-L23	0.28
COR-L 105	0.434
LOU-NH91	0.557
ChaGo-K-1	0.901
NCI-H2170	0.387
NCI-H2405	0.495
HOP-62	0.525

same assay, conditions: first compound 0.8 µM

Cell Line	relative viability
NCI-H2342	0.506
NCI-H727	0.811
NCI-H1650	0.269
NCI-H1993	0.638
SW 1573	0.328
NCI-H838	0.204
LCLC-103H	0.47
NCI-H520	0.179
NCI-H2126	0.351
EMC-BAC-2	0.518
NCI-H2085	0.336
HCC-366	0.385
NCI-H1666	0.722
LK-2	0.688
NCI-H2087	0.209
NCI-H1648	0.265
SK-MES-1	0.295
H3255	0.306
COR-L23	0.305
COR-L 105	0.434
LOU-NH91	0.552
ChaGo-K-1	0.926
NCI-H2170	0.387
NCI-H2405	0.526
HOP-62	0.486

same assay, conditions: first compound 2.53 µM

Cell Line	relative viability
NCI-H2342	0.54
NCI-H1650	0.267
NCI-H1993	0.495
SW 1573	0.282
NCI-H838	0.167
LCLC-103H	0.265
NCI-H520	0.146
NCI-H2126	0.314
EMC-BAC-2	0.46
NCI-H2085	0.273
HCC-366	0.35
NCI-H1666	0.638
LK-2	0.54
NCI-H2087	0.185
SK-MES-1	0.282
H3255	0.339
COR-L23	0.338
COR-L 105	0.492
LOU-NH91	0.49
ChaGo-K-1	0.919
NCI-H2170	0.384
NCI-H2405	0.455
HOP-62	0.457

same assay, conditions: first compound 8 µM

Cell Line	relative viability
NCI-H2342	0.448
NCI-H727	0.532
NCI-H1650	0.288
NCI-H1993	0.484
SW 1573	0.218
NCI-H838	0.163
LCLC-103H	0.353
NCI-H520	0.15
NCI-H2126	0.36
EMC-BAC-2	0.429
NCI-H2085	0.343
HCC-366	0.229
NCI-H1666	0.681
LK-2	0.342
NCI-H2087	0.207
NCI-H1648	0.242
SK-MES-1	0.301
H3255	0.339
COR-L23	0.224
COR-L 105	0.376
LOU-NH91	0.542
ChaGo-K-1	0.934
NCI-H2170	0.347
NCI-H2405	0.413
HOP-62	0.407

Source: the supplement of paper PMC10307832
